Data published in US12780800B1, “Triazole-pyridinyl substituted azacyclohexyl acetic acid compounds as LPA receptor antagonists” (Viva Star Biosciences Limited, priority 2021, dated 2022).

Target: T1, LPA1 (Homo sapiens, UniProt Q92633)
T1 construct: ProLink (PK) beta-galactosidase enzyme-fragment tag; host or cells: CHO-K1
Assay: LPA1 calcium flux assay (LPA1 functional antagonist assay)
Format: cell-based
Settings: PathHunter CHO-K1 EDG2 β-Arrestin cell line; calcium indicator dye; stimulated with EC80 concentration of LPA; FLIPR Tetra
In short: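 The LPA1 antagonist readout was intracellular calcium flux, and IC50 values were calculated from it. Plates stood 30 min at RT after compound addition. Cells, grown overnight, had first taken up calcium dye over 45 min at 37 °C.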

T1 sequence (Q92633 whole entry, the tested form may be a part): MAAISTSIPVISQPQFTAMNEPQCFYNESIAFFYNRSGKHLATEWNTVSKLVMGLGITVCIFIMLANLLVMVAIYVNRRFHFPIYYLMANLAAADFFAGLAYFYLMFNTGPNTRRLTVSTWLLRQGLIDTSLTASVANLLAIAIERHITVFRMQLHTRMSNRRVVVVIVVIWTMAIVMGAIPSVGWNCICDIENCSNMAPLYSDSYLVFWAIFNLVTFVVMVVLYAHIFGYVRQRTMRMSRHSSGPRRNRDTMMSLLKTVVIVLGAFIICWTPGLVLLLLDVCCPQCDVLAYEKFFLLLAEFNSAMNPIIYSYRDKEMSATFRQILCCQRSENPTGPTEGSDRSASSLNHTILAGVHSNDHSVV

| Compound | IC50 [nM] |
| --- | --- |
| CCc1nc(-c2nnn(C)c2COc2noc(CC3CC3)n2)ccc1N1C[C@@H](CC(=O)O)CC(F)(F)C1 [Example 116, (S)-2-(1-(6-(5-(((5-(cyclopropylmethyl)-1,2,4-oxadiazol-3-yl)oxy)methyl)-1-methyl-1H-1,2,3-triazol-4-yl)-2-ethylpyridin-3-yl)-5,5-difluoropiperidin-3-yl)acetic acid] | < 100 |
| CCc1nc(-c2nnn(C)c2CNc2noc(CC3CC3)n2)ccc1N1C[C@@H](CC(=O)O)CC(F)(F)C1 [Example 117, (S)-2-(1-(6-(5-(((5-(cyclopropylmethyl)-1,2,4-oxadiazol-3-yl)amino)methyl)-1-methyl-1H-1,2,3-triazol-4-yl)-2-ethylpyridin-3-yl)-5,5-difluoropiperidin-3-yl)acetic acid] | 100 to 500 |
| CCc1nc(-c2nnn(C)c2COc2noc(C3CCC3)n2)ccc1N1C[C@@H](CC(=O)O)CC(F)(F)C1 [Example 119, (S)-2-(1-(6-(5-(((5-cyclobutyl-1,2,4-oxadiazol-3-yl)oxy)methyl)-1-methyl-1H-1,2,3-triazol-4-yl)-2-ethylpyridin-3-yl)-5,5-difluoropiperidin-3-yl)acetic acid] | 100 to 500 |
| CCc1nc(-c2nnn(C)c2CNc2noc(C3CCC3)n2)ccc1N1C[C@@H](CC(=O)O)CC(F)(F)C1 [Example 120, (S)-2-(1-(6-(5-(((5-cyclobutyl-1,2,4-oxadiazol-3-yl)amino)methyl)-1-methyl-1H-1,2,3-triazol-4-yl)-2-ethylpyridin-3-yl)-5,5-difluoropiperidin-3-yl)acetic acid] | 500 to 5000 |
| CCCn1ncnc1OCc1c(-c2ccc(N3C[C@@H](CC(=O)O)CC(F)(F)C3)c(CC)n2)nnn1C [Example 121, (S)-2-(1-(2-ethyl-6-(1-methyl-5-(((1-propyl-1H-1,2,4-triazol-5-yl)oxy)methyl)-1H-1,2,3-triazol-4-yl)pyridin-3-yl)-5,5-difluoropiperidin-3-yl)acetic acid] | 500 to 5000 |
| CCc1nc(-c2nnn(C)c2COc2ncnn2CC(C)C)ccc1N1C[C@@H](CC(=O)O)CC(F)(F)C1 [Example 123, (S)-2-(1-(2-ethyl-6-(5-(((1-isobutyl-1H-1,2,4-triazol-5-yl)oxy)methyl)-1-methyl-1H-1,2,3-triazol-4-yl)pyridin-3-yl)-5,5-difluoropiperidin-3-yl)acetic acid] | 100 to 500 |
| CCc1nc(-c2nnn(C)c2COc2nnn(CC3CC3)n2)ccc1N1C[C@@H](CC(=O)O)CC(F)(F)C1 [Example 125, (S)-2-(1-(6-(5-(((2-(cyclopropylmethyl)-2H-tetrazol-5-yl)oxy)methyl)-1-methyl-1H-1,2,3-triazol-4-yl)-2-ethylpyridin-3-yl)-5,5-difluoropiperidin-3-yl)acetic acid] | < 100 |
| CCc1nc(-c2nnn(C)c2COc2cn(CC3CC3)nn2)ccc1N1C[C@@H](CC(=O)O)CC(F)(F)C1 [Example 126, (S)-2-(1-(6-(5-(((1-(cyclopropylmethyl)-1H-1,2,3-triazol-4-yl)oxy)methyl)-1-methyl-1H-1,2,3-triazol-4-yl)-2-ethylpyridin-3-yl)-5,5-difluoropiperidin-3-yl)acetic acid] | 100 to 500 |
| CCc1nc(-c2nnn(C)c2COc2cnn(CC3CC3)n2)ccc1N1C[C@@H](CC(=O)O)CC(F)(F)C1 [Example 127] | 100 to 500 |
| CCc1nc(-c2nnn(C)c2COc2cn(CC(C)C)nn2)ccc1N1C[C@@H](CC(=O)O)CC(F)(F)C1 [Example 128, (S)-2-(1-(2-ethyl-6-(5-(((1-isobutyl-1H-1,2,3-triazol-4-yl)oxy)methyl)-1-methyl-1H-1,2,3-triazol-4-yl)pyridin-3-yl)-5,5-difluoropiperidin-3-yl)acetic acid] | 100 to 500 |
| CCc1nc(-c2nnn(C)c2COc2cnn(CC(C)C)n2)ccc1N1C[C@@H](CC(=O)O)CC(F)(F)C1 [Example 129, (S)-2-(1-(2-ethyl-6-(5-(((2-isobutyl-2H-1,2,3-triazol-4-yl)oxy)methyl)-1-methyl-1H-1,2,3-triazol-4-yl)pyridin-3-yl)-5,5-difluoropiperidin-3-yl)acetic acid] | < 100 |
| CCc1nc(-c2nnn(C)c2Cn2nncc2CC2CC2)ccc1N1C[C@@H](CC(=O)O)CC(F)(F)C1 [Example 132, (S)-2-(1-(6-(5-((5-(cyclopropylmethyl)-1H-1,2,3-triazol-1-yl)methyl)-1-methyl-1H-1,2,3-triazol-4-yl)-2-ethylpyridin-3-yl)-5,5-difluoropiperidin-3-yl)acetic acid] | < 100 |

Continued, values first:

| IC50 [nM] | Compound |
| --- | --- |
| 500 to 5000 | CCCc1cccnc1OCc1c(-c2ccc(N3CCC(CC(=O)O)C(F)(F)C3)c(C)n2)nnn1C (stereo not shown) [Example 113, 2-(3,3-difluoro-1-(2-methyl-6-(1-methyl-5-(((3-propylpyridin-2-yl)oxy)methyl)-1H-1,2,3-triazol-4-yl)pyridin-3-yl)piperidin-4-yl)acetic acid] |
| > 5000 | CCc1nc(-c2cnn(C)c2COc2noc(CC3CC3)n2)ncc1N1C[C@@H](CC(=O)O)CC(F)(F)C1 [Example 118, (S)-2-(1-(2-(5-(((5-(cyclopropylmethyl)-1,2,4-oxadiazol-3-yl)oxy)methyl)-1-methyl-1H-pyrazol-4-yl)-4-ethylpyrimidin-5-yl)-5,5-difluoropiperidin-3-yl)acetic acid] |
| 100 to 500 | CCc1nc(-c2nnn(C)c2COc2ncnn2CC2CC2)ccc1N1C[C@@H](CC(=O)O)CC(F)(F)C1 [Example 122, (S)-2-(1-(6-(5-(((1-(cyclopropylmethyl)-1H-1,2,4-triazol-5-yl)oxy)methyl)-1-methyl-1H-1,2,3-triazol-4-yl)-2-ethylpyridin-3-yl)-5,5-difluoropiperidin-3-yl)acetic acid] |
| < 100 | CCc1nc(-c2nnn(C)c2COc2nnn(CC(C)C)n2)ccc1N1C[C@@H](CC(=O)O)CC(F)(F)C1 [Example 124, (S)-2-(1-(2-ethyl-6-(5-(((2-isobutyl-2H-tetrazol-5-yl)oxy)methyl)-1-methyl-1H-1,2,3-triazol-4-yl)pyridin-3-yl)-5,5-difluoropiperidin-3-yl)acetic acid] |
| < 100 | CCc1nc(-c2nnn(C)c2Cn2ncc(CC3CC3)n2)ccc1N1C[C@@H](CC(=O)O)CC(F)(F)C1 [Example 130, (S)-2-(1-(6-(5-((4-(cyclopropylmethyl)-2H-1,2,3-triazol-2-yl)methyl)-1-methyl-1H-1,2,3-triazol-4-yl)-2-ethylpyridin-3-yl)-5,5-difluoropiperidin-3-yl)acetic acid] |
| 100 to 500 | CCc1nc(-c2nnn(C)c2Cn2cc(CC3CC3)nn2)ccc1N1C[C@@H](CC(=O)O)CC(F)(F)C1 [Example 131, (S)-2-(1-(6-(5-((4-(cyclopropylmethyl)-1H-1,2,3-triazol-1-yl)methyl)-1-methyl-1H-1,2,3-triazol-4-yl)-2-ethylpyridin-3-yl)-5,5-difluoropiperidin-3-yl)acetic acid] |
| 100 to 500 | Cc1nc(-c2nnn(C)c2Cn2cc(CC3CC3)nn2)ccc1N1C[C@@H](CC(=O)O)CC(F)(F)C1 [Example 133, (S)-2-(1-(6-(5-((4-(cyclopropylmethyl)-1H-1,2,3-triazol-1-yl)methyl)-1-methyl-1H-1,2,3-triazol-4-yl)-2-methylpyridin-3-yl)-5,5-difluoropiperidin-3-yl)acetic acid] |
